Entries after “also recorded” stand apart in the source; their conditions may differ. Like-named read-outs stand apart in the source and are kept apart here.
What was measured:
[1] = tested on: MTAP-deleted lung cancer cells (A549); test: Cell proliferation of MTAP-deleted A549 cells by MTT assay, mizoribine base pre-treatment then L-alanosine; type: cell-based; conditions: Homo sapiens
Experimental: MTAP-deleted lung cancer cells (A549) were pre-treated for 24 hours with control vehicle (square), or the indicated concentrations of mizoribine-base (10 μM, 25 μM and 50 μM). After 24 hours in culture L-alanosine was added at decreasing concentrations (½ dilutions) starting at 40 μM. Cell were then incubated for an additional 48 hours. Cell proliferation was tested by the MTT assay. As indicated by FIG. 4, the IC50 and IC90 (amount of drug needed to block proliferation by 50% or 90%) of L-alanosine declines in the presence of mizoribine base.

[2] = tested on: MTAP-deleted chronic myelogenous leukemia cells (K562); test: Cell proliferation of MTAP-deleted K562 cells by MTT dye assay; type: cell-based; conditions: read-out: IC50 (amount of drug needed to block proliferation by 50%)
Experimental: MTAP-deleted chronic myelogenous leukemia cells (K562) were pre-treated for the indicated times (24, 48, 72 hours) with concentrations of mizoribine (squares) or mizoribine base (triangles) from 200 μM to 0.5 μM. At the end of the incubation time cell proliferation was tested by the MTT dye assay. As indicated by FIG. 3, the IC50 (amount of drug needed to block proliferation by 50%) of mizoribine or its base progressively declines as the time of exposure to drug increases. After 48 hours of incubation with mizoribine or mizoribine base, the IC50 for the drug is approximately 100 micromolar. After 72 hours of incubation with mizoribine or mizoribine base, the IC50 for the drug is approximately 10 micromolar.

CLL cells [3] = test: CLL cell viability by MTT dye assay; type: cell-based; conditions: Homo sapiens, 24 h, read-out: cell viability
Experimental: Indanocine is commercially available from Calbiochem (Cat. No. 402080). Leoni L. M., et al., J Natl Cancer Inst. 92:217-224 (2000). Hua X. H., et al., Cancer Res. 61:7248-7254 (2001). CLL cells were isolated and cultured as described above. CLL cells at a density of 1×10^6 ml were incubated for 24 hours in RPMI 1640 medium supplemented with 10% fetal bovine serum in the presence of 1 μM indanocine (abbreviated 178) and either 0, 1, or 10 μM mizoribine. Cell viability was assessed by the MTT [3-(4,5-dimethylthiazol-2-yl)-2,5-diphenyltetrazolium bromide) dye assay.

[4] = tested on: normal PBL (peripheral blood mononuclear cells); test: α-tubulin polymerization assay in normal PBL (soluble vs particulate fraction, immunoblot); type: cell-based, human; conditions: normal resting PBL, paclitaxel for one hour
Experimental: (§1) Peripheral blood from CLL patients or normal donors was layered on top of Ficoll-Paque Plus (Pharmacia, NJ) and centrifuged at 1200×g for twenty minutes. The enriched peripheral blood mononuclear cells (PBL) were washed several times with Ca++, Mg++-free HBSS.
(§2) All primary cells were cultured in RPMI 1640 medium with 20% fetal bovine serum (regular medium) at a density of 2-5×10^6 cell/ml. In some cases, the PBL were stimulated for 24 hours with 1 μg/ml anti-CD3 and anti-CD28 antibodies (Alexis, San Diego, Calif.) prior to immunoblot analysis.
(§3) α-tubulin Polymerization Assay. For each data point, 2×10^6 of cells were incubated in 2 ml of regular medium containing drugs for various periods of time. The cells were then washed twice at room temperature, and resuspended in 50 μl of α-tubulin extraction buffer (1 mM MgC2, 2 m MEGTA, 0.5% NP-40, 20 mM Tris-HCl, pH=6.8) supplemented with 2 mM phenylmethysulfonyl fluoride, and a protease inhibitor cocktail (Sigma). After a brief but vigorous vortex, the lysates were incubated at room temperature for 5 minutes, and then centrifuged at 16,000×g for 5 minutes to separate the soluble from polymerized α-tubulin. The supernatant and pellet fractions were resolved on 10-20% pre-cast tris-glycine gels (Novex, San Diego, Calif.) and then subjected to immune blotting with a specific anti-α-tubulin antibody. […]

CLL cells [5] = test: α-tubulin polymerization assay in CLL cells; type: cell-based, human; conditions: paclitaxel
Experimental: Lymphocyte Cultures. The Institutional Review Board of the University of California, San Diego approved this study, and all patients gave informed written consent to participation. Subjects had CLL according to National Cancer Institute (NCI) criteria of any Rai stage. None of the patients were in active chemotherapeutic treatments. Flow cytometric analysis determined that all specimens contained more than 90% CD5+CD19+B cells.
as §1, §2
α-tubulin Polymerization Assay. For each data point, 2×10^6 of cells were incubated in 2 ml of regular medium containing drugs for various periods of time. The cells were then washed twice at room temperature, and resuspended in 50 μl of α-tubulin extraction buffer (1 mM MgC2, 2 m MEGTA, 0.5% NP-40, 20 mM Tris-HCl, pH=6.8) supplemented with 2 mM phenylmethysulfonyl fluoride, and a protease inhibitor cocktail (Sigma). […]

activated PBL = test: α-tubulin polymerization assay in PBL activated with anti-CD3 and anti-CD28 antibodies; type: cell-based, human; conditions: PBL activated 24 hrs with anti-CD3 and anti-CD28, paclitaxel for one hour
Experimental: as §1, §2, §3

[6] = in vivo; cited from earlier work
[7] = A549, 48 h, A549, without mizoribine base, 48 hours L-alanosine
[8] = A549, A549, 24 hours pre-treatment with 10 micromolar mizoribine base
[9] = A549, A549, 24 hours pre-treatment with 25 micromolar mizoribine base
[10] = A549, A549, 24 hours pre-treatment with 50 micromolar mizoribine base

SMILES: N[C@@H](CN(O)N=O)C(=O)O [L-alanosine]
- IC50 [1, 7]: 0.5 µM
- IC90 [1, 7]: 20 µM
- IC50 [1, 8]: 0.5 µM
- IC90 [1, 8]: 9 µM
- IC50 [1, 9]: 0.25 µM
- IC90 [1, 9]: 6 µM
- IC50 [1, 10]: 0.15 µM
- IC90 [1, 10]: 4 µM

SMILES: NC(=O)c1[nH]cnc1O [mizoribine base, mizoribine aglycone]
- IC50 ([2]; K562, 48 hours of incubation): ~100 µM
- IC50 ([2]; K562, 72 hours of incubation): ~10 µM

SMILES: COc1cc2c(c(N)c1OC)C(=O)/C(=C\c1cc(C)c(O)c(C)c1)C2 [indanocine]
- viability at 1 µM (CLL cells [3]): 24%

SMILES: CC(=O)O[C@H]1C(=O)[C@@]2(C)[C@H]([C@H](OC(=O)c3ccccc3)[C@]3(O)C[C@H](OC(=O)[C@H](O)[C@@H](NC(=O)c4ccccc4)c4ccccc4)C(C)=C1C3(C)C)[C@]1(OC(C)=O)CO[C@@H]1C[C@@H]2O [paclitaxel]
- α-tubulin in the particulate fraction after treatment [4]: only a minimal increase of α-tubulin in the particulate fraction; also recorded: did not change this pattern
- α-tubulin in the particulate fraction after treatment (CLL cells [5]): nearly complete relocalization of α-tubulin to the particulate fraction
- α-tubulin in the particulate fraction after treatment (activated PBL): most of the α-tubulin shifted to the particulate fraction; also recorded: a shift of α-tubulin to the particulate-bound fraction

SMILES: NC(=O)c1ncn([C@@H]2O[C@H](CO)[C@@H](O)[C@H]2O)c1O [mizoribine]
- plasma half life [6]: a few hours
- IC50 ([2]; Homo sapiens, K562, 48 hours of incubation): ~100 µM
- IC50 ([2]; Homo sapiens, K562, 72 hours of incubation): ~10 µM
- viability at 1 µM (CLL cells [3]): 55%
- viability at 10 µM (CLL cells [3]): 45%

Source: patent publication US20040127435A1, “Uses for inhibitors of inosine monophosphate dehydrogenase” (REGENTS OF THE UNIVERSITY OF CALIFORNIA, priority 2002, published 2004)
